Experimental data: article PMC6783499, “Heteroglycoclusters With Dual Nanomolar Affinities for the Lectins LecA and LecB From Pseudomonas aeruginosa” (Frontiers in Chemistry, 2019)

Experiments:
LecA = target: T1, LecA (Pseudomonas aeruginosa, UniProt Q05097); assay: biochemical; format: binding
T1 construct: made in house; host or cells: Escherichia coli BL21(DE3)
Procedure: (§1) The resulting hGCs were tested in solution with lectins by Isothermal Titration Calorimetry (Table 1) and their binding properties were compared with homoclusters 15–20 (Berthet et al., [2013]; Thomas et al., [2015b]) displaying either 4 and 16 βGal or αFuc units attached with an oxime or a triazole linker (Figure 3). […] Experiments were performed in direct injection mode (i.e., ligand in syringe and protein in cell) to minimize aggregation problems.
(§2) All chemical reagents were purchased from Aldrich (Saint Quentin Fallavier, France) or Acros (Noisy-Le-Grand, France). All protected amino acids and Fmoc-Gly-Sasrin® resin was obtained from Advanced ChemTech Europe (Brussels, Belgium). For peptides and glycopeptides, analytical RP-HPLC was performed on Waters system equipped with a Waters 2695 separations module and a Waters 2487 Dual Absorbance UV/Visible Detector. Analysis was carried out at 1.0 mL/min (EC 125/3 nucleosil 300-5 C18) with UV monitoring at 214 nm and 250 nm using a linear A–B gradient (buffer A: 0.09% CF3CO2H in water; buffer B: 0.09% CF3CO2H in 90% acetonitrile). Purifications were carried out at 22.0 mL/min (VP 250/21 nucleosil 100-7 C18) with UV monitoring at 214 nm and 250 nm using a linear A–B gradient. HRMS and ESI-MS and HRMS spectra of peptides and glycopeptides were measured on an Esquire 3000 spectrometer from Bruker. Lectins LecA and LecB were produced in recombinant form in Escherichia coli BL21(DE3) as described previously (Mitchell et al., [2005]; Blanchard et al., [2008]).
Other compounds were assayed with a VP-ITC isothermal titration calorimeter (Microcal). The experiments were carried out at 25°C. All glycocompounds and lectins LecB and LecA were dissolved in the same buffer composed of 20 mM Tris with 100 mM NaCl and 0.1 mM CaCl2 at pH 7.5. For PEAQ-ITC, the lectins were placed in the microcalorimeter cell (200 μL) at concentrations varying from 35 to 70 μM. […] For VP-ITC, the microcalorimeter cell (1.447 mL) contained the lectins with concentrations between 30 and 100 μM. […] The experimental data were fitted to a theoretical titration curve using the Microcal PEAQ-ITC analysis software, with ΔH (enthalpy change), Ka (association constant), and N (number of binding sites per monomer) as adjustable parameters. Dissociation constant (Kd), free energy change (ΔG), and entropy contributions (TΔS) were derived from the previous ones. Two or three independent titrations were performed for each ligand tested.

LecB = target: T2, LecB (Pseudomonas aeruginosa, UniProt Q9HYN5); assay: biochemical; format: binding
T2 construct: made in house; host or cells: Escherichia coli BL21(DE3)
Procedure: as §1, §2
Other compounds were assayed with a VP-ITC isothermal titration calorimeter (Microcal). The experiments were carried out at 25°C. All glycocompounds and lectins LecB and LecA were dissolved in the same buffer composed of 20 mM Tris with 100 mM NaCl and 0.1 mM CaCl2 at pH 7.5. For PEAQ-ITC, the lectins were placed in the microcalorimeter cell (200 μL) at concentrations varying from 35 to 70 μM. […] For VP-ITC, the microcalorimeter cell (1.447 mL) contained the lectins with concentrations between 30 and 100 μM. A total of 30 injections of 10 μL were performed intervals of 5 min while stirring at 310 rpm with glycoclusters concentrations varying from […]. The experimental data were fitted to a theoretical titration curve using the Microcal PEAQ-ITC analysis software, with ΔH (enthalpy change), Ka (association constant), and N (number of binding sites per monomer) as adjustable parameters. Dissociation constant (Kd), free energy change (ΔG), and entropy contributions (TΔS) were derived from the previous ones. Two or three independent titrations were performed for each ligand tested.

[1] = LecA, ITC, 25°C, per mole of glycocluster
[2] = ITC, 25°C, per mole of glycocluster

T1 sequence (Q05097 whole entry): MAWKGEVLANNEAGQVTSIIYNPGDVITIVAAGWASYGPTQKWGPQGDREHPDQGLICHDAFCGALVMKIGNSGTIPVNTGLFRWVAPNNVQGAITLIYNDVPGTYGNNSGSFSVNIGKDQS
T2 sequence (Q9HYN5 entry or part of it): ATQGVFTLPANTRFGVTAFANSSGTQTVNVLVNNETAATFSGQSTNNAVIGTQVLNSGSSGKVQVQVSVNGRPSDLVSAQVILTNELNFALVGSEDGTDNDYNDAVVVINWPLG

## C[C@@H]1NC(=O)[C@H](CCCCNC(=O)/C=N/O[C@@H]2O[C@@H](C)[C@@H](O)[C@@H](O)[C@@H]2O)NC(=O)CNC(=O)[C@@H]2CCCN2C(=O)[C@H](CCCCNC(=O)/C=N/O[C@@H]2O[C@@H](C)[C@@H](O)[C@@H](O)[C@@H]2O)NC(=O)[C@H](CCCCNC(=O)CO/N=C/C(=O)NCCCC[C@@H]2NC(=O)CNC(=O)[C@@H]3CCCN3C(=O)[C@H](CCCCNC(=O)/C=N/OCC(=O)NCCCC[C@@H]3NC(=O)[C@H](CCCCNC(=O)/C=N/O[C@@H]4O[C@@H](C)[C@@H](O)[C@@H](O)[C@@H]4O)NC(=O)CNC(=O)[C@@H]4CCCN4C(=O)[C@H](CCCCNC(=O)/C=N/O[C@@H]4O[C@@H](C)[C@@H](O)[C@@H](O)[C@@H]4O)NC(=O)[C@H](C)NC(=O)[C@H](CCCCNC(=O)/C=N/O[C@@H]4O[C@@H](C)[C@@H](O)[C@@H](O)[C@@H]4O)NC(=O)CNC(=O)[C@@H]4CCCN4C(=O)[C@H](CCCCNC(=O)/C=N/O[C@@H]4O[C@@H](C)[C@@H](O)[C@@H](O)[C@@H]4O)NC3=O)NC(=O)[C@H](CCCCN)NC(=O)[C@H](CCCCNC(=O)CO/N=C/C(=O)NCCCC[C@@H]3NC(=O)[C@H](CCCCn4cc(CO[C@@H]5O[C@H](CO)[C@H](O)[C@H](O)[C@H]5O)nn4)NC(=O)CNC(=O)[C@@H]4CCCN4C(=O)[C@H](CCCCn4cc(CO[C@@H]5O[C@H](CO)[C@H](O)[C@H](O)[C@H]5O)nn4)NC(=O)[C@H](C)NC(=O)[C@H](CCCCn4cc(CO[C@@H]5O[C@H](CO)[C@H](O)[C@H](O)[C@H]5O)nn4)NC(=O)CNC(=O)[C@@H]4CCCN4C(=O)[C@H](CCCCn4cc(CO[C@@H]5O[C@H](CO)[C@H](O)[C@H](O)[C@H]5O)nn4)NC3=O)NC(=O)CNC(=O)[C@@H]3CCCN3C(=O)[C@H](CCCCNC(=O)CO/N=C/C(=O)NCCCC[C@@H]3NC(=O)[C@H](CCCCn4cc(CO[C@@H]5O[C@H](CO)[C@H](O)[C@H](O)[C@H]5O)nn4)NC(=O)CNC(=O)[C@@H]4CCCN4C(=O)[C@H](CCCCn4cc(CO[C@@H]5O[C@H](CO)[C@H](O)[C@H](O)[C@H]5O)nn4)NC(=O)[C@H](C)NC(=O)[C@H](CCCCn4cc(CO[C@@H]5O[C@H](CO)[C@H](O)[C@H](O)[C@H]5O)nn4)NC(=O)CNC(=O)[C@@H]4CCCN4C(=O)[C@H](CCCCn4cc(CO[C@@H]5O[C@H](CO)[C@H](O)[C@H](O)[C@H]5O)nn4)NC3=O)NC(=O)[C@H](C)NC2=O)NC(=O)[C@H](CCCCNC(=O)/C=N/O[C@@H]2O[C@@H](C)[C@@H](O)[C@@H](O)[C@@H]2O)NC(=O)CNC(=O)[C@@H]2CCCN2C(=O)[C@H](CCCCNC(=O)/C=N/O[C@@H]2O[C@@H](C)[C@@H](O)[C@@H](O)[C@@H]2O)NC1=O [Compound 11]
LecA
  Kd: 0.034 ± 0.007 µM
LecA; LecA, ITC
  –ΔH (binding enthalpy): 51.6 to 58.1 kcal/mol
LecA; LecA, ITC, 25°C, pH 7.5
  n (stoichiometry, glycocluster molecules per lectin monomer): 0.16
LecA; [1]
  –ΔG: 10.2 kcal/mol
  –ΔH: 55.59 ± 0.48 kcal/mol
  −TΔS: 45.39 kcal/mol
LecA; LecA, abstract
  binding to LecA in words: maintain their binding potency
LecA; LecA, relative to βGal-OMe
  α (relative potency compared to the monovalent compound): 4,412
  β (relative potency per sugar unit): 551
LecB; ITC
  –ΔH (binding enthalpy): 50.7 kcal/mol
LecB; ITC, 25°C, pH 7.5
  n (stoichiometry, glycocluster molecules per lectin monomer): 0.10
LecB; [2]
  –ΔG: 9.61 kcal/mol
  –ΔH: 50.69 ± 1.4 kcal/mol
  −TΔS: 41.09 kcal/mol
LecB; Kd, ITC, 25°C, 20 mM Tris, 100 mM NaCl, 0.1 mM CaCl2, pH 7.5, ligand in syringe
  Kd: 0.092 ± 0.014 µM
LecB; abstract
  binding to LecB in words: maintain their binding potency
LecB; relative to αFuc-OMe
  α (relative potency compared to the monovalent compound): 4.7
